Test results published in PubChem BioAssay (NCI).
Where “and” joins values, the source holds several entries; their conditions need not be identical. Equal entries are not always repeated.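 Assay format: 96-well plates, 48-hour exposure. At the GI50, growth is halved. TGI denotes the concentration required for complete inhibition of growth.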

Assays:
Experiment in all cases: NCI anticancer screen, dose series, 48 h
IGROV1 ovarian = test system: IGROV1 ovarian
EKVX NSCLC = test system: EKVX NSCLC
MOLT-4 leukemia = test system: MOLT-4 leukemia
HL-60(TB) leukemia = test system: HL-60(TB) leukemia
HOP-92 NSCLC = test system: HOP-92 NSCLC
HCC-2998 colon = test system: HCC-2998 colon
786-0 renal = test system: 786-0 renal
CCRF-CEM leukemia = test system: CCRF-CEM leukemia
OVCAR-5 ovarian = test system: OVCAR-5 ovarian
A498 renal = test system: A498 renal

Row | SMILES | TGI (IGROV1 ovarian) [µM] | TGI (EKVX NSCLC) [µM] | TGI (MOLT-4 leukemia) [µM] | TGI (HL-60(TB) leukemia) | TGI (HOP-92 NSCLC) [µM] | TGI (HCC-2998 colon) | TGI (786-0 renal) | TGI (CCRF-CEM leukemia) [µM] | TGI (OVCAR-5 ovarian) [µM] | TGI (A498 renal) [µM] | GI50 (IGROV1 ovarian) | GI50 (EKVX NSCLC) | GI50 (MOLT-4 leukemia) | GI50 (HL-60(TB) leukemia) | GI50 (HCC-2998 colon) | GI50 (786-0 renal) | GI50 (CCRF-CEM leukemia) | GI50 (A498 renal) [µM] | GI50 (HOP-92 NSCLC) [µM] | GI50 (OVCAR-5 ovarian) [µM]
1 | CC(C)(O)C1OCC(C2CCC3(C)C4=CCC5C(C)(C)C(O)CCC5(C)C4CCC23C)CC1O (stereo not drawn) | 31 | 32.3 | 41.9 | > 100 µM | 27.6 | 30.1 µM | 27.3 µM | > 100 | 39.6 | 30.4 | – | – | – | – | – | – | – | – | – | –
2 | COc1ccc(-c2cn[nH]c2-c2cc(OC)c(OC)c(OC)c2)cc1N | > 100 | > 100 | > 100 | < 0.01 µM and 0.0834 µM | > 100 | 93.6 µM and 32.1 µM | 86.5 µM and > 56.6 µM | > 100 | > 100 | – | < 0.01 µM and 0.0415 µM | < 0.01 µM and 0.0673 µM | < 0.01 µM and 0.0429 µM | < 0.01 µM and 0.0248 µM | < 0.01 µM and 0.0317 µM | < 0.01 µM and 0.0611 µM | < 0.01 µM and 0.0347 µM | < 0.01 | – | –
3 | O=C1OC(=O)C2C1C1(c3ccccc3)C(c3ccccc3)=C(c3ccccc3)C2(c2ccccc2)S1=O (stereo not drawn) | > 100 | > 100 | – | > 100 µM | > 100 | > 100 µM | > 100 µM | > 100 | > 100 | > 100 | > 100 µM | > 100 µM | – | > 100 µM | > 100 µM | > 100 µM | > 100 µM | > 100 | > 100 | > 100
4 | O=C(Nc1ccc(Cl)cc1)c1cc2ccccc2cc1O | > 100 | > 100 | > 100 | 7.91 µM | 7.77 | 7.65 µM | > 100 µM | > 100 | > 100 | 8.37 | 2.19 µM | 2.98 µM | 4.19 µM | 2.7 µM | 2.55 µM | 3.81 µM | 4.65 µM | 2.23 | 1.41 | 4.07
5 | O=C(NC(=S)Nc1ccc(Cl)cc1)c1ccccc1 | > 100 | > 100 | > 100 | > 100 µM | 68.5 | > 100 µM | > 100 µM | > 100 | > 100 | > 100 | > 87.7 µM | > 100 µM | > 100 µM | > 100 µM | > 100 µM | > 87.4 µM | > 100 µM | 33 | 8.63 | > 100
6 | CCOP(=O)(OCC)/C(C#N)=C/c1ccco1 | > 100 | > 100 | > 100 | > 100 µM | > 100 | > 100 µM | > 100 µM | > 100 | > 100 | > 100 | – | – | – | – | – | – | – | – | – | –
7 | Cc1cc(S(=O)(=O)Nc2nnc(-c3ccccc3)c(-c3ccccc3)n2)c(SCc2ccccc2)cc1Cl | > 100 | 25.2 | 36.8 | 67.2 µM | 47.1 | 43.8 µM | 29.8 µM | 75.5 | 50.3 | 39.1 | 37.3 µM | 5.68 µM | 15 µM | 34.1 µM | 27.3 µM | 14.5 µM | 23.8 µM | 19.8 | 18.8 | 24.8
8 | C[C@H]1CCC/C=C/[C@@H]2C[C@H](O)C[C@H]2[C@H](O)[C@@H](S(=O)CCN(C)C)CC(=O)O1 (stereo partly drawn) | – | – | – | > 100 µM | > 100 | > 100 µM | – | > 100 | > 100 | – | 0.337 µM | 0.384 µM | 0.349 µM | 0.303 µM | 0.386 µM | 0.0416 µM | 0.388 µM | 0.116 | 4.99 | 0.367
9 | CN(c1ccccc1)C(c1ccccc1)C(O)c1ccccc1 (stereo not drawn) | 45.4 | 62.7 | 42.1 | 37.7 µM | 47.8 | 38.8 µM | 33.8 µM | 63.3 | 37.3 | 37.5 | – | – | – | – | – | – | – | – | – | –
10 | CC1(C)OCC(CO)(Nc2nc(N3CC3)nc(N3CC3)n2)CO1 | 58.5 | 90.8 | 19 | 25.3 µM | 51.5 | 36.3 µM | 18.7 µM | > 83.4 | 50.3 | 24.2 | – | – | – | – | – | – | – | – | – | –
11 | CC1NOC(=O)C1N=Nc1ccccc1Cl (stereo not drawn) | > 100 | > 100 | – | 52.2 µM | 54.6 | > 100 µM | > 100 µM | > 100 | > 100 | 49.3 | – | – | – | – | – | – | – | – | – | –
12 | C=C(CN1CCc2ccccc2C1)c1ccc(C(=O)Nc2ccc(N)cc2)cc1 | – | > 100 | 53 | 36.7 µM | 12.7 | 43 µM | > 100 µM | > 100 | > 100 | > 100 | – | 22.4 µM | 1.93 µM | 7.07 µM | 14.6 µM | 22.9 µM | 0.454 µM | 21.4 | 0.0854 | 29.9
13 | Cc1nc2cccc(NCc3ccc(C(=O)NO)cc3)c2c(=O)n1-c1ccccc1 | – | 4.9 | > 100 | 10.2 µM | 4.46 | 3.27 µM | 3.78 µM | > 100 | 6.75 | 3.28 | – | 2.08 µM | 2.28 µM | 2.87 µM | 1.81 µM | 1.81 µM | 2.09 µM | 1.7 | 1.93 | 2.13
14 | CC(=O)OCC1OC(n2c(=O)n(-c3ccccc3)c(=O)c3ccccc32)C(OC(C)=O)C(OC(C)=O)C1OC(C)=O (stereo not drawn) | > 100 | > 100 | > 100 | > 100 µM | > 100 | > 100 µM | > 100 µM | > 100 | > 100 | > 100 | – | – | – | – | – | – | – | – | – | –
15 | S=C(Nc1ccc(Cl)cc1)Nc1ccc(-c2nc3ccccc3[nH]2)cc1 | 23.7 | 52.5 | – | > 66 µM | 12.3 | 2.69 µM | 22.8 µM | > 63.6 | 40.8 | 55.5 | 7.02 µM | 13.3 µM | – | 7.26 µM | 1.39 µM | 10.2 µM | 4.37 µM | 23.6 | 1.53 | 20.4
